According to ChEMBL document CHEMBL5260810, “Inhibition of bromodomain-containing protein 9 for the prevention of epigenetically-defined drug resistance” (Bioorg Med Chem Lett, 2017):

System: EB2
Experiment: Cytotoxicity against human EB2 cells measured after 8 days
Assay type: functional, cell-based
Conditions: EB2, 192 h

Row | Compound | IC50
1 | C/C=C/Cn1cc(-c2cc(OC)c(C(=O)N3CCOCC3)cc2OC)c2cc(C)[nH]c2c1=O | 2 µM
2 | C/C=C/Cn1cc(-c2ccc(C(C)(C)O)cc2OC)c2cc[nH]c2c1=O | 20 µM

System: HEL
Experiment: Cytotoxicity against human HEL cells measured after 8 days
Assay type: functional, cell-based
Conditions: 192 h

Row | Compound | IC50
3 | C/C=C/Cn1cc(-c2cc(OC)c(C(=O)N3CCOCC3)cc2OC)c2cc(C)[nH]c2c1=O | 2 µM
4 | C/C=C/Cn1cc(-c2ccc(C(C)(C)O)cc2OC)c2cc[nH]c2c1=O | 14.8 µM

System: NCI-H1944
Experiment: Cytotoxicity against human NCI-H1944 cells measured after 8 days
Assay type: functional, cell-based
Conditions: NCI-H1944, 192 h

Row | Compound | IC50
5 | C/C=C/Cn1cc(-c2cc(OC)c(C(=O)N3CCOCC3)cc2OC)c2cc(C)[nH]c2c1=O | 2 µM
6 | C/C=C/Cn1cc(-c2ccc(C(C)(C)O)cc2OC)c2cc[nH]c2c1=O | 20 µM

System: NCI-H2122
Experiment: Cytotoxicity against human NCI-H2122 cells measured after 8 days
Assay type: functional, cell-based
Conditions: NCI-H2122, 192 h

Row | Compound | IC50
7 | C/C=C/Cn1cc(-c2cc(OC)c(C(=O)N3CCOCC3)cc2OC)c2cc(C)[nH]c2c1=O | 2 µM
8 | C/C=C/Cn1cc(-c2ccc(C(C)(C)O)cc2OC)c2cc[nH]c2c1=O | 20 µM

System: not listed separately
Experiment: Cytotoxicity against human NCI-H322T cells measured after 8 days
Assay type: functional, cell-based
Conditions: 192 h

Row | Compound | IC50
9 | C/C=C/Cn1cc(-c2cc(OC)c(C(=O)N3CCOCC3)cc2OC)c2cc(C)[nH]c2c1=O | 2 µM
10 | C/C=C/Cn1cc(-c2ccc(C(C)(C)O)cc2OC)c2cc[nH]c2c1=O | 20 µM

System: CAMA-1
Experiment: Cytotoxicity against human CAMA-1 cells measured after 8 days
Assay type: functional, cell-based
Conditions: CAMA-1, 192 h

Row | Compound | IC50
11 | C/C=C/Cn1cc(-c2cc(OC)c(C(=O)N3CCOCC3)cc2OC)c2cc(C)[nH]c2c1=O | 2 µM
12 | C/C=C/Cn1cc(-c2ccc(C(C)(C)O)cc2OC)c2cc[nH]c2c1=O | 20 µM

System: HCC1937
Experiment: Cytotoxicity against human HCC1937 cells measured after 8 days
Assay type: functional, cell-based
Conditions: HCC1937, 192 h

Row | Compound | IC50
13 | C/C=C/Cn1cc(-c2cc(OC)c(C(=O)N3CCOCC3)cc2OC)c2cc(C)[nH]c2c1=O | 2 µM
14 | C/C=C/Cn1cc(-c2ccc(C(C)(C)O)cc2OC)c2cc[nH]c2c1=O | 20 µM

System: MDA-MB-468
Experiment: Cytotoxicity against human MDA-MB-468 cells measured after 8 days
Assay type: functional, cell-based
Conditions: MDA-MB-468, 192 h

Row | Compound | IC50
15 | C/C=C/Cn1cc(-c2cc(OC)c(C(=O)N3CCOCC3)cc2OC)c2cc(C)[nH]c2c1=O | 2 µM
16 | C/C=C/Cn1cc(-c2ccc(C(C)(C)O)cc2OC)c2cc[nH]c2c1=O | 20 µM

System: DAN-G
Experiment: Cytotoxicity against human DAN-G cells measured after 8 days
Assay type: functional, cell-based
Conditions: 192 h

Row | Compound | IC50
17 | C/C=C/Cn1cc(-c2cc(OC)c(C(=O)N3CCOCC3)cc2OC)c2cc(C)[nH]c2c1=O | 2 µM
18 | C/C=C/Cn1cc(-c2ccc(C(C)(C)O)cc2OC)c2cc[nH]c2c1=O | 20 µM

System: YMB-1-E
Experiment: Cytotoxicity against human YMB-1-E cells measured after 8 days
Assay type: functional, cell-based
Conditions: 192 h

Row | Compound | IC50
19 | C/C=C/Cn1cc(-c2cc(OC)c(C(=O)N3CCOCC3)cc2OC)c2cc(C)[nH]c2c1=O | 2 µM
20 | C/C=C/Cn1cc(-c2ccc(C(C)(C)O)cc2OC)c2cc[nH]c2c1=O | 20 µM

System: COLO 320DM
Experiment: Cytotoxicity against human COLO 320DM cells measured after 8 days
Assay type: functional, cell-based
Conditions: 192 h

Row | Compound | IC50
21 | C/C=C/Cn1cc(-c2cc(OC)c(C(=O)N3CCOCC3)cc2OC)c2cc(C)[nH]c2c1=O | 2 µM
22 | C/C=C/Cn1cc(-c2ccc(C(C)(C)O)cc2OC)c2cc[nH]c2c1=O | 20 µM

System: DU-145
Experiment: Cytotoxicity against human DU-145 cells measured after 8 days
Assay type: functional, cell-based
Conditions: DU-145, 192 h

Row | Compound | IC50
23 | C/C=C/Cn1cc(-c2cc(OC)c(C(=O)N3CCOCC3)cc2OC)c2cc(C)[nH]c2c1=O | 2 µM
24 | C/C=C/Cn1cc(-c2ccc(C(C)(C)O)cc2OC)c2cc[nH]c2c1=O | 20 µM

System: SW948
Experiment: Cytotoxicity against human SW948 cells measured after 8 days
Assay type: functional, cell-based
Conditions: SW948, 192 h

Row | Compound | IC50
25 | C/C=C/Cn1cc(-c2cc(OC)c(C(=O)N3CCOCC3)cc2OC)c2cc(C)[nH]c2c1=O | 2 µM
26 | C/C=C/Cn1cc(-c2ccc(C(C)(C)O)cc2OC)c2cc[nH]c2c1=O | 20 µM

System: not listed separately
Experiment: Cytotoxicity against human KE-97 cells measured after 8 days
Assay type: functional, cell-based
Conditions: KE-97, 192 h

Row | Compound | IC50
27 | C/C=C/Cn1cc(-c2cc(OC)c(C(=O)N3CCOCC3)cc2OC)c2cc(C)[nH]c2c1=O | 2 µM
28 | C/C=C/Cn1cc(-c2ccc(C(C)(C)O)cc2OC)c2cc[nH]c2c1=O | 20 µM

System: DV-90
Experiment: Cytotoxicity against human DV-90 cells measured after 8 days
Assay type: functional, cell-based
Conditions: DV-90, 192 h

Row | Compound | IC50
29 | C/C=C/Cn1cc(-c2cc(OC)c(C(=O)N3CCOCC3)cc2OC)c2cc(C)[nH]c2c1=O | 2 µM
30 | C/C=C/Cn1cc(-c2ccc(C(C)(C)O)cc2OC)c2cc[nH]c2c1=O | 20 µM

System: not listed separately
Experiment: Cytotoxicity against human HCC4019 cells measured after 8 days
Assay type: functional, cell-based
Conditions: HCC4019, 192 h

Row | Compound | IC50
31 | C/C=C/Cn1cc(-c2cc(OC)c(C(=O)N3CCOCC3)cc2OC)c2cc(C)[nH]c2c1=O | 2 µM
32 | C/C=C/Cn1cc(-c2ccc(C(C)(C)O)cc2OC)c2cc[nH]c2c1=O | 20 µM

Molecular target: T1, Bromodomain and PHD finger-containing protein 3 (Homo sapiens, UniProt Q9ULD4)
T1 sequence (Q9ULD4 whole entry): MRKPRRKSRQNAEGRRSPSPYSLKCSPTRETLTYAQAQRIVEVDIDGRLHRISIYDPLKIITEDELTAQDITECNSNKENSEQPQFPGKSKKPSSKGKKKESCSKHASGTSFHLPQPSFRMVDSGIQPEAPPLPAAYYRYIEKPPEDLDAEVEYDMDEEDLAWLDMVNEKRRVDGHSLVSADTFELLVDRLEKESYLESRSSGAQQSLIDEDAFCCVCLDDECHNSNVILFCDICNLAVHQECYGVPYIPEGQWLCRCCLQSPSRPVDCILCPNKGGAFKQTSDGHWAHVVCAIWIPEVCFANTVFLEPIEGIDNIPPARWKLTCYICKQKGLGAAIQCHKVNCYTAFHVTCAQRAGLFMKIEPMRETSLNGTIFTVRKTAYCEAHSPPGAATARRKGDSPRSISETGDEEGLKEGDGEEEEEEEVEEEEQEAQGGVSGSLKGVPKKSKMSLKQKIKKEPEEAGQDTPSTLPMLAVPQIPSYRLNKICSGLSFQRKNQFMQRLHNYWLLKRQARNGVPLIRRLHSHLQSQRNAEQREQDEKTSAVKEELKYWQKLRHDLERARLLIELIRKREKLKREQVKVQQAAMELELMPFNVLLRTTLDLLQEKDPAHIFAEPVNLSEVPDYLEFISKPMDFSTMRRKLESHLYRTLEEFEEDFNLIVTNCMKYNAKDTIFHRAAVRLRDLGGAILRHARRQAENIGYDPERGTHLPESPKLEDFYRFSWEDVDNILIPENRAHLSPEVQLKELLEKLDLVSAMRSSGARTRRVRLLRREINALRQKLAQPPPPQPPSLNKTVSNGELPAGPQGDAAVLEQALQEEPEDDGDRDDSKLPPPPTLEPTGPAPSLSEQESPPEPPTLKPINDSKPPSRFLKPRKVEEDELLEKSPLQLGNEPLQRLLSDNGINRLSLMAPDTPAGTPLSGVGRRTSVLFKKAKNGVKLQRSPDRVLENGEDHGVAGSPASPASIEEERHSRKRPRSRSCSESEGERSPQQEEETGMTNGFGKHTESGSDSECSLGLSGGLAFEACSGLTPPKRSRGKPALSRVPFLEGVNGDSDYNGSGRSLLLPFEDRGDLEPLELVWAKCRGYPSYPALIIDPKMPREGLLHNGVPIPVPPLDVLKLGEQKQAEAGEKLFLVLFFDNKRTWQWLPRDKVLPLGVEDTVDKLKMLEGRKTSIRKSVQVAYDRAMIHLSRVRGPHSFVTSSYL
Experiment: Binding affinity to human partial length BRPF3 (E588 to G701 residues) expressed in bacterial expression system by BROMOscan assay
Conditions: not given

Row | Compound | Kd
33 | C/C=C/Cn1cc(-c2cc(OC)c(C(=O)N3CCOCC3)cc2OC)c2cc(C)[nH]c2c1=O | > 10 µM
34 | C/C=C/Cn1cc(-c2ccc(C(C)(C)O)cc2OC)c2cc[nH]c2c1=O | > 10 µM

Molecular target: Histone acetyltransferase p300 (Homo sapiens, UniProt Q09472)
Experiment: Binding affinity to human partial length EP300 (A1040 to G1161 residues) expressed in bacterial expression system by BROMOscan assay
Conditions: not given

Chain of Histone acetyltransferase p300 (Q09472 whole entry, the tested form may be a part): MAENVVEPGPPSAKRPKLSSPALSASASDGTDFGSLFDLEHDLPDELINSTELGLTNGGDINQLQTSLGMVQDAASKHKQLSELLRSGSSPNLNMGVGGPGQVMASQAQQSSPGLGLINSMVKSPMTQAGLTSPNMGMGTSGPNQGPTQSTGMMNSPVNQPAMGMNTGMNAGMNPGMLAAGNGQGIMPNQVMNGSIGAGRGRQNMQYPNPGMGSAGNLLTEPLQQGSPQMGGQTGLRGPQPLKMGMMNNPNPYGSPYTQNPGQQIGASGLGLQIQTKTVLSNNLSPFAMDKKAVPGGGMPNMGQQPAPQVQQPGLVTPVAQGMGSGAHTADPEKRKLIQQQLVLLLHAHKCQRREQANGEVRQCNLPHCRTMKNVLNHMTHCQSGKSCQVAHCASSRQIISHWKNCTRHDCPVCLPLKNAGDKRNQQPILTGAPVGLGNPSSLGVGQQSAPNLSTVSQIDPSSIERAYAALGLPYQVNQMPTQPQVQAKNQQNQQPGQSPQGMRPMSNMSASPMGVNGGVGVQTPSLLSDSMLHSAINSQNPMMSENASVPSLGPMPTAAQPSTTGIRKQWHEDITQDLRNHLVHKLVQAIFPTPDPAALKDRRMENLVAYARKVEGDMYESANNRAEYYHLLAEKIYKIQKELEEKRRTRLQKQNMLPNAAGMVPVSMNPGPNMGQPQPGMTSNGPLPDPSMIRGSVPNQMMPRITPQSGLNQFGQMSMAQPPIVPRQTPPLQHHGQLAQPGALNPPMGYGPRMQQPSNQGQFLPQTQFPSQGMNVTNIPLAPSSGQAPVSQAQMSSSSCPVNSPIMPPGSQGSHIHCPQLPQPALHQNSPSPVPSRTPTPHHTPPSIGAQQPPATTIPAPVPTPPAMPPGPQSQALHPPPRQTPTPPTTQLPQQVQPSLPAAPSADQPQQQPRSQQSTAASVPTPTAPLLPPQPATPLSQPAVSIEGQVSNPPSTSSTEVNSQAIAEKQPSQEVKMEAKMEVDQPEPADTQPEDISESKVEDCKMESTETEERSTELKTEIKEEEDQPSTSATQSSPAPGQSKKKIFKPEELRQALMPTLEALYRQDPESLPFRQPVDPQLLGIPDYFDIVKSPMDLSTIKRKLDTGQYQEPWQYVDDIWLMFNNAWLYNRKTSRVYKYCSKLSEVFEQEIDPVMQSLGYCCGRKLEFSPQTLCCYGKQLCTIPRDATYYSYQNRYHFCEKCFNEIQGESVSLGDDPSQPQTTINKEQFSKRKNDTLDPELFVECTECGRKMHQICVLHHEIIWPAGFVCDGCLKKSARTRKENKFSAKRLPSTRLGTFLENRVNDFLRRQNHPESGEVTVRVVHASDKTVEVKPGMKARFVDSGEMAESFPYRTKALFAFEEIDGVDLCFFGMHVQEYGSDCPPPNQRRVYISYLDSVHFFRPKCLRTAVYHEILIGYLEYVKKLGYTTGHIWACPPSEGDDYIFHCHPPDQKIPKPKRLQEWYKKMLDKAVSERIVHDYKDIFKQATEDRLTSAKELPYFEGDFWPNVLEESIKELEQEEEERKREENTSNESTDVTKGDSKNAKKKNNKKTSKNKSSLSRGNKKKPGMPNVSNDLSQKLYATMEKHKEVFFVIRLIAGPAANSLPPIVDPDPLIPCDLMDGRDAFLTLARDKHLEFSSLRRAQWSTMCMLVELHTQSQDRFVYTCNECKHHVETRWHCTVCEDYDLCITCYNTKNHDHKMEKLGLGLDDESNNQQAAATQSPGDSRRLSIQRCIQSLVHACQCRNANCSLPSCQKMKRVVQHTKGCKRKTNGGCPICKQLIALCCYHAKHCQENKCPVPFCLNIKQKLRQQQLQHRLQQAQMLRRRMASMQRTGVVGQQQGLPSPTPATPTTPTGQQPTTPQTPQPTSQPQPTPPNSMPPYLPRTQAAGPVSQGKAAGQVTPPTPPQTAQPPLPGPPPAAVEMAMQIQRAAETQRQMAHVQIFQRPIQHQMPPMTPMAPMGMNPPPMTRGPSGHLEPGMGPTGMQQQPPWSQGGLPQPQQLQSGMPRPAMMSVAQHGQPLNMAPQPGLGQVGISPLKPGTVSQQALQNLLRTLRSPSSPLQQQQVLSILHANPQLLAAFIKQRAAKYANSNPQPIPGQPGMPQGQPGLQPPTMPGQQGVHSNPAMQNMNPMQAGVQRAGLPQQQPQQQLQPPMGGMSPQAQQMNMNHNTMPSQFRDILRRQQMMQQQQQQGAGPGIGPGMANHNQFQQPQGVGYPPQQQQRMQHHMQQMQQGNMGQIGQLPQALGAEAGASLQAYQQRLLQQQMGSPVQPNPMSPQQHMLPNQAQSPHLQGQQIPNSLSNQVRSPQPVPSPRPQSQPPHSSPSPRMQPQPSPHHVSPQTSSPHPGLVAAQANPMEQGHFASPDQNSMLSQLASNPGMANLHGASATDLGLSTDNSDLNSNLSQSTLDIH

Row | Compound | Kd
35 | C/C=C/Cn1cc(-c2cc(OC)c(C(=O)N3CCOCC3)cc2OC)c2cc(C)[nH]c2c1=O | > 10 µM
36 | C/C=C/Cn1cc(-c2ccc(C(C)(C)O)cc2OC)c2cc[nH]c2c1=O | 4.5 µM

Molecular target: T2, Ephrin type-A receptor 1 (Homo sapiens) (UniProt P21709)
T2 sequence (whole entry): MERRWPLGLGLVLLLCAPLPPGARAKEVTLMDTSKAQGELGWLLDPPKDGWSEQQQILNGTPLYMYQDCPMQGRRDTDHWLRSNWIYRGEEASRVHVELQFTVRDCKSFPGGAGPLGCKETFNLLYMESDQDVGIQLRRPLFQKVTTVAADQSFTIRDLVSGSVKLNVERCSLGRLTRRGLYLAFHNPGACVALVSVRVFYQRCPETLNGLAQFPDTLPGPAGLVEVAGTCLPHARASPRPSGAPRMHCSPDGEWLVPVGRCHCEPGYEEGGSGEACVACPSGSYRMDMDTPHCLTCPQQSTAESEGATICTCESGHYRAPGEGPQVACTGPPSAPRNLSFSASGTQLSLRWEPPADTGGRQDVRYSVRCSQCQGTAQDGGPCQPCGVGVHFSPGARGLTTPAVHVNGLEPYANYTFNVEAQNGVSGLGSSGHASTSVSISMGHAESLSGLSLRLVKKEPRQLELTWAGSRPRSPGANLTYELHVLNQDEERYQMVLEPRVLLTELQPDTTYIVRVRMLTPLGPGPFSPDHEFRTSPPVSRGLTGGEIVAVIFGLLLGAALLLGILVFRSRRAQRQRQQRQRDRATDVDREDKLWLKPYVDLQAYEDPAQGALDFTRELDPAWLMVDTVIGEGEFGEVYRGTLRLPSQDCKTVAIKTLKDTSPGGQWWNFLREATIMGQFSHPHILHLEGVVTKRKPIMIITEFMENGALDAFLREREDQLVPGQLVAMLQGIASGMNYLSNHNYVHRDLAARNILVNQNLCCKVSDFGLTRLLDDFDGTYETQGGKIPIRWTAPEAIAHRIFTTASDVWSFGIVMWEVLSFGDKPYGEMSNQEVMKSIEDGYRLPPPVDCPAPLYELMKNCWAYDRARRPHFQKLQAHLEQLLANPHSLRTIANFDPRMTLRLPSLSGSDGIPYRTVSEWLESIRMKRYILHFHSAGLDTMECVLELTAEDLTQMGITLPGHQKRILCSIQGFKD
Experiment: Inhibition of EphA1 (unknown origin) at 1 uM relative to control
Conditions: not given

Row | Compound | inhibition
37 | C/C=C/Cn1cc(-c2cc(OC)c(C(=O)N3CCOCC3)cc2OC)c2cc(C)[nH]c2c1=O | 4%
38 | C/C=C/Cn1cc(-c2ccc(C(C)(C)O)cc2OC)c2cc[nH]c2c1=O | 4%
